“Also recorded” adds a separate entry of the source.
What was measured:
[1] = tested on: HERV-W Env (Syncytin-1) mRNA; assay: Quantitative real-time PCR of Syncytin-1 in MCF-7 cells; type: cell-based, human; settings: MCF-7 Tau-GFPAD cells, 2 μM for 4 d; vs DMSO
Experimental: FIG. 14: Human endogenous retroviruses contribute to the spreading of protein aggregates. • a. Experimental workflow. A human breast cancer cell line MCF-7 (4) was engineered to stably express Tau-GFP and induced to propagate Tau aggregates by exposure to Alzheimer's disease brain homogenate (AD). A single cell clone was subsequently isolated and used in the experiment (MCF-7 Tau-GFPAD). This donor clone was treated with 2 μM 5-Aza-2-deoxycytidine (Aza) for 4 d to de-repress HERV expression. Pretreated donor cells were cocultured with HEK-Tau-FRsol cells. • b. […] Statistics: Unpaired Student's t-test (n=3). • c. Quantitative analysis of recipient cells with induced Tau-FR aggregates following coculture with DMSO-treated or Aza-treated donor cells. Statistics: Unpaired Student's t-test (n=6). • d. […] Recipients were subsequently cocultured with transduced donors that had been passaged at least 5 times post transduction. • e. shRNA-mediated downregulation of Syncytin-1 mRNA in MCF-7 Tau-GFPAD cells assessed by quantitative real-time PCR. […] Quantitative analysis of recipient cells with induced Tau-FR aggregates following coculture with donors with decreased HERV-W Syncytin-1 expression. […]
Total RNAs from cell pellets were isolated using the RNeasy Mini Kit or RNeasy Lipid Tissue Mini Kit (Qiagen). RNA concentration and quality were determined with Agilent 2100 Bioanalyzer System. […]

[2] = tested on: MuERV Env and Gag; type: cell-based, mouse; settings: s2E P1 donors; Aza 200 nM or Dec 100 nM, then 5 days without drug; vs DMSO
Experimental: To inhibit methyltransferases, s2E P1 donor cells were treated for three days with methyltransferase inhibitors 5-Azacytidine (Aza) 200 nM, Decitabine (Dec) 100 nM or DMSO as solvent control. Subsequently, the cells were cultured in the absence of the drugs for 5 days. Pre-treated donor cells were subsequently cocultured with recipient cells as described above to monitor aggregate induction efficiency in recipient N2a NM-GFP^sol cells. Cell lysates of donor cells were also analyzed for MuERV Env and Gag expression levels by western blot. To increase DNA methylation, the s2E donor clone (P21) was treated with methyl group donors L-methionine (L-M) 80 mM, Betaine (B) 80 mM, Choline chloride (CC) 20 mM or medium control for 6 days. MuERV Env and Gag protein levels were analyzed by western blot. Subsequently, cells were cocultured with recipient cells for 16 h. The percentage of aggregate containing recipient cells was compared to the percentage of aggregate bearing recipients cocultured with solvent-treated donors.
Pre-designed siRNAs against murine XPR1 and mCat-1 genes were used to knock-down genes coding for putative receptors. For transfection, 2-4×10^5 cells/well were seeded on 6 well plates. The next day, 30 nM siRNA or plasmid DNA was transfected using Lipofectamine RNAiMAX or Lipofectamine2000 transfection reagent, respectively, according to the manufacturer's instructions (Thermo Fisher Scientific). After 2 days, transfected cells were harvested for aggregate induction assays and qRT-PCR, western blot analysis.
For Western blot analysis, protein concentrations were measured using the Quick Start™ Bradford Protein assay (Bio-Rad). Proteins were separated on NuPAGE®Novex® 4-12 Bis-Tris Protein Gels (Life Technologies) followed by transfer onto a PVDF membrane (GE Healthcare). Western blot analysis was performed using rat hybridoma anti-MuERV Env mAb83A25; anti-xenotropic MuLV virus antibody ABIN457298 for detecting both Env and Gag (antibodies-online); mouse anti-MuERV Gag ab100970 (Abcam); mouse anti-Alix (1:1000; BD Bioscience); rat anti-HA 3F10 (1:1000; Roche); mouse anti-GAPDH 6C5 (1:5000; Abcam); mouse anti-Hsc/Hsp70 N27F3-4 (1:1000; ENZO); mouse anti-VSV-G A5977 (Sigma); rabbit anti-Tau ab64193 (Abcam); mouse anti-HERV K Env HERM-1811-5 (Amsbio); mouse anti-HERV K Gag HERM-1841-5 (Amsbio). The membrane was incubated with Pierce™ ECL Western Blotting Substrate (Thermo Fisher Scientific) according to the manufacturer's recommendations.

Nc1ncn([C@H]2C[C@H](O)[C@@H](CO)O2)c(=O)n1 [Decitabine, 5-aza-2′-deoxycytidine]
Syncytin-1 mRNA levels [1]: enhanced Syncytin-1 mRNA levels; also recorded: increased HERV-W Env (Syncytin-1) expression
expression of MuERV proteins [2]: increased expression
